Data published in patent US7094400B1, “Transkaryotic implantation” (Shire Human Genetic Therapies, Inc., priority 1987, dated 2006).

Tests used:
[1] = system: Transfected cells which expressed human growth hormone; test: Effects of immunosuppression on IP cells, serum human growth hormone; type: in vivo; conditions: for serum human growth hormone: in ng/mL
From the text: If the transfected cells are destroyed by transplant rejection, immunosuppression should prolong the functional life of the implant.

[2] = system: mouse metallothionein-I promoter; test: Zinc induction of hGH expression from intraperitoneally implanted cells (metallothionein-I promoter); type: in vivo, mice; conditions: 76 mM ZnSO4 in drinking water; IP stably transfected cells
Procedure: As described above, the plasmid pXGH5 contains the mouse metallothionein-I promoter. In order to determine whether the implanted cells were sufficiently healthy to respond to their local environment, the ability of zinc to induce higher levels of human growth hormone expression was determined. Stably transfected cells, prepared as described in Example 1B, were implanted intraperitoneally in mice, some of which were given 76 mM ZnSO4 in their drinking water. The animals treated with zinc expressed ten-fold more human growth hormone in their serum than did those with no treatment. […] Furthermore, RNA prepared from cells recovered from subcapsular implants contained the correct mMT-I/human growth hormone fusion mRNA (FIG. 5). […] Of substantial importance is the fact that the cells, once in place in the animal, could still be modulated by external means.

Row | Structure (SMILES) | serum human growth hormone detectable until [1] | serum human growth hormone ([1]; day 1 post-implantation) | serum human growth hormone ([1]; day 2 post-implantation) | serum human growth hormone ([1]; day 4 post-implantation) | serum human growth hormone ([1]; day 21 post-implantation) | serum human growth hormone ([1]; day 27 post-implantation) | serum human growth hormone ([1]; day 41 post-implantation) | serum human growth hormone ([1]; day 48 post-implantation) | serum human growth hormone ([1]; days 8 to 10 post-implantation) | serum human growth hormone ([1]; days 15 to 17 post-implantation) | human growth hormone in serum versus no treatment [2]
1 | C[C@@H]1C[C@H]2[C@@H]3CCC4=CC(=O)C=C[C@]4(C)[C@@]3(F)[C@@H](O)C[C@]2(C)[C@@]1(O)C(=O)CO [Dexamethasone, dexamethasone] | 48 days post-implantation | 94.8 +/− 9.2 | 86.6 +/− 10.5 | 54.3 +/− 14.2 | 28.0 +/− 13.6 | 13.9 +/− 6.9 | 7.5 +/− 6.1 | 2.7 +/− 2.2 | 99.3 +/− 48.0 | 28.3 +/− 18.1 | 
2 | O=S(=O)([O-])[O-].[Zn+2] [ZnSO4] |  |  |  |  |  |  |  |  |  |  | ten-fold more
